According to patent publication US10030020B2, “Spirocycle compounds and methods of making and using same” (Abide Therapeutics, Inc., priority 2016, dated 2018):

Assays:
[1] = molecular target: T1, ABHD6 (Mus musculus (Mouse), UniProt Q8R2Y0); experiment: Mouse brain proteomes from inhibitor treated mice (oral gavage, sacrificed 4 h after administration, ABPP analysis), ABHD6; format: in vivo, mouse (C57Bl/6J); conditions: 5 mg/kg oral gavage
Method in brief: (§1)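 Compounds were given by oral gavage to wild-type C57Bl/6J mice in a vehicle such as PEG400/Ethanol/PBS (7/2/1). Animals were sacrificed 4 h after dosing, and brain proteomes were prepared and analyzed by established ABPP methods. Values are % inhibition at 5 mg/kg.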

[2] = molecular target: T2, MAGL (Mus musculus (Mouse), UniProt O35678); experiment: Mouse brain proteomes from inhibitor treated mice (oral gavage, sacrificed 4 h after administration, ABPP analysis); format: in vivo, mouse (C57Bl/6J); conditions: 5 mg/kg oral gavage
T2 sequence (O35678 whole entry): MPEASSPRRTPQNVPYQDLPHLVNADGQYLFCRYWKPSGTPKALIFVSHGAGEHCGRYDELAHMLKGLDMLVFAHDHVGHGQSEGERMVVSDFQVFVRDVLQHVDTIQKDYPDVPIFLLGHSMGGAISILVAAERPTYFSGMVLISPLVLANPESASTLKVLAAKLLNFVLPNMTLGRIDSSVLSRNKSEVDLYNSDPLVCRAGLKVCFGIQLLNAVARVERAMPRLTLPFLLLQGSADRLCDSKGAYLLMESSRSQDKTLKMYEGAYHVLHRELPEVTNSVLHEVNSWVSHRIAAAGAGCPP
Method in brief: as §1

[3] = molecular target: T3, FAAH (Mus musculus (Mouse), UniProt O08914); experiment: In vitro competitive activity-based protein profiling (mouse brain membrane fraction or cell lysates), FAAH band; format: biochemical; conditions: mouse proteome; for inhibition at 1 µM: read-out: FAAH % Inh 1 μM (mouse); for IC50: competitive ABPP
T3 sequence (O08914 whole entry): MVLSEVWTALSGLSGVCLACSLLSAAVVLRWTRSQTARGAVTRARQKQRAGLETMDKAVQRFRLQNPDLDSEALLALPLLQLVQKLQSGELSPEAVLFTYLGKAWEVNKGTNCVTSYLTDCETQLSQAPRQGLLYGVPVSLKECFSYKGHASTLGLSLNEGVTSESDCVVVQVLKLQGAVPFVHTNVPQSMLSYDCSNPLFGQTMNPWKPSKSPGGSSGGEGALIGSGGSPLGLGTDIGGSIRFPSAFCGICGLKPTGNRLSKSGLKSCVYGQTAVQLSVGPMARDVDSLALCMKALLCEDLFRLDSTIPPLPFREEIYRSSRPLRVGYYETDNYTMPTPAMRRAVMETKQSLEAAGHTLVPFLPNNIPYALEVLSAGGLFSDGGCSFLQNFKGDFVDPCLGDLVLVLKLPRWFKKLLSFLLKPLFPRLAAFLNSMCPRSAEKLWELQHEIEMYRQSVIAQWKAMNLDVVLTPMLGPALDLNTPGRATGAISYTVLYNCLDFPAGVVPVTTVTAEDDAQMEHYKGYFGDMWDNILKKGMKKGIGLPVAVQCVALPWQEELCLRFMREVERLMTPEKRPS
Method in brief: (§2)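 Mouse proteome samples (brain membrane fraction or cell lysate, 1.0 mg/mL protein) were pretreated with varying inhibitor concentrations and subsequently probed with fluorophosphonate-rhodamine, each step lasting 30 min at 37° C. Labelled proteins were separated by SDS-PAGE, and band fluorescence was imaged and quantified.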

[4] = molecular target: T1, ABHD6; experiment: In vitro competitive activity-based protein profiling (mouse brain membrane fraction or cell lysates), ABHD6 band; format: biochemical; conditions: mouse proteome; for inhibition at 1 µM: read-out: ABHD6 % Inh 1 μM (mouse); for IC50: competitive ABPP
Method in brief: as §2

[5] = molecular target: T3, FAAH; experiment: Mouse brain proteomes from inhibitor treated mice (oral gavage, sacrificed 4 h after administration, ABPP analysis), FAAH; format: in vivo, mouse (C57Bl/6J); conditions: 5 mg/kg oral gavage
Method in brief: as §1

[6] = molecular target: T2, MAGL; experiment: In vitro competitive activity-based protein profiling (mouse brain membrane fraction or cell lysates), MAGL band; format: biochemical; conditions: mouse proteome; for inhibition at 1 µM: read-out: MAGL % Inh 1 μM (mouse); for IC50: competitive ABPP
Protocol: In Vitro Competitive Activity-Based Protein Profiling.
Proteomes (mouse brain membrane fraction or cell lysates) (50 μL, 1.0 mg/mL total protein concentration) were preincubated with varying concentrations of inhibitors at 37° C. After 30 min, FP—Rh (1.0 μL, 50 μM in DMSO) was added and the mixture was incubated for another 30 min at 37° C. Reactions were quenched with SDS loading buffer (50 μL-4×) and run on SDS-PAGE.

T1 sequence (Q8R2Y0 whole entry): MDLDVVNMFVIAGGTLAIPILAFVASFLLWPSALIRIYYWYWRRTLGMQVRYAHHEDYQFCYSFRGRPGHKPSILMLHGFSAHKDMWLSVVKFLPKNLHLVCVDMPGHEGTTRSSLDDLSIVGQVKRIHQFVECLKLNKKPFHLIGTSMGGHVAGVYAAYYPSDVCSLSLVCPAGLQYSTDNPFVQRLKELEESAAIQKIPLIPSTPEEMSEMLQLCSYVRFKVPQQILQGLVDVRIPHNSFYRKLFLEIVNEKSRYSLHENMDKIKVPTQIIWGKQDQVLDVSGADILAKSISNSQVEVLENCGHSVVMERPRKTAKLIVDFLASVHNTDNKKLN

Row | ABHD6 % Inh 5 mg/kg (mouse) [1] | MAGL % Inh 5 mg/kg (mouse) [2] | inhibition at 1 µM [3] | IC50 [3] | inhibition at 1 µM [4] | IC50 [4] | FAAH % Inh 5 mg/kg (mouse) [5] | inhibition at 1 µM [6] | IC50 [6] | Compound
1 | # (# is <25%) | ### (### is ≥75%) | – | > 1 µM | – | > 1 µM | # (# is <25%) | – | < 0.1 µM | O=C(OC(C(F)(F)F)C(F)(F)F)N1CCC2(CCCN2Cc2ccc(Cl)c(OCCF)c2)CC1 [Example 28, 1,1,1,3,3,3-Hexafluoropropan-2-yl 1-(4-chloro-3-(2-fluoroethoxy)benzyl)-1,8-diazaspiro[4.5]decane-8-carboxylate]
2 | # (# is <25%) | # (# is <25%) | < 25% | > 1 µM | < 25% | > 1 µM | # (# is <25%) | > 75% | < 0.1 µM | CC1(C)CC2(CCN(C(=O)OC(C(F)(F)F)C(F)(F)F)CC2)CN1Cc1ccc(C(F)(F)F)cc1N1CCC2(CCOCC2)C1 [Example 52, 1,1,1,3,3,3-Hexafluoropropan-2-yl 2-(2-(8-oxa-2-azaspiro[4.5]decan-2-yl)-4-(trifluoromethyl)benzyl)-3,3-dimethyl-2,8-diazaspiro[4.5]decane-8-carboxylate]
3 | # (# is <25%) | ### (### is ≥75%) | < 25% | > 1 µM | 25 to 75% | > 1 µM | # (# is <25%) | > 75% | 0.1 to 1 µM | Cc1cc(CN2CCCC23CCN(C(=O)OC(C(F)(F)F)C(F)(F)F)CC3)ccc1C(F)(F)F [Example 177, 1,1,1,3,3,3-Hexafluoropropan-2-yl 1-(3-methyl-4-(trifluoromethyl)benzyl)-1,8-diazaspiro[4.5]decane-8-carboxylate]
4 | # (# is <25%) | # (# is <25%) | < 25% | > 1 µM | < 25% | > 1 µM | # (# is <25%) | > 75% | < 0.1 µM | CS(=O)(=O)N1CCN(c2cc(C(F)(F)F)ccc2CN2CCCC23CCN(C(=O)OC(C(F)(F)F)C(F)(F)F)CC3)CC1 [Example 89, 1,1,1,3,3,3-Hexafluoropropan-2-yl 1-(2-(4-(methylsulfonyl)piperazin-1-yl)-4-(trifluoromethyl)benzyl)-1,8-diazaspiro[4.5]decane-8-carboxylate]
5 | # (# is <25%) | ### (### is ≥75%) | < 25% | > 1 µM | < 25% | > 1 µM | # (# is <25%) | > 75% | 0.1 to 1 µM | CCOc1ccc(CN2CCCC23CCN(C(=O)OC(C(F)(F)F)C(F)(F)F)CC3)cc1 [Example 4, 1,1,1,3,3,3-Hexafluoropropan-2-yl 1-(4-ethoxybenzyl)-1,8-diazaspiro[4.5]decane-8-carboxylate]
6 | # (# is <25%) | ### (### is ≥75%) | < 25% | > 1 µM | < 25% | > 1 µM | # (# is <25%) | > 75% | < 0.1 µM | CS(=O)(=O)N1CCN(c2cc(Cl)ccc2CN2CCCC23CCN(C(=O)OC(C(F)(F)F)C(F)(F)F)CC3)CC1 [Example 100, 1,1,1,3,3,3-Hexafluoropropan-2-yl 1-(4-chloro-2-(4-(methylsulfonyl)piperazin-1-yl)benzyl)-1,8-diazaspiro[4.5]decane-8-carboxylate]

The next lines start with the compound.

Row | Compound | ABHD6 % Inh 5 mg/kg (mouse) [1] | MAGL % Inh 5 mg/kg (mouse) [2] | inhibition at 1 µM [3] | IC50 [3] | inhibition at 1 µM [4] | IC50 [4] | FAAH % Inh 5 mg/kg (mouse) [5] | inhibition at 1 µM [6] | IC50 [6]
7 | O=C(OC(C(F)(F)F)C(F)(F)F)N1CCC2(CCCN2Cc2cc(N3CCOCC3)cc(C(F)(F)F)c2)CC1 [Example 35, 1,1,1,3,3,3-Hexafluoropropan-2-yl 1-(3-morpholino-5-(trifluoromethyl)benzyl)-1,8-diazaspiro[4.5]decane-8-carboxylate] | # (# is <25%) | ### (### is ≥75%) | < 25% | > 1 µM | < 25% | > 1 µM | # (# is <25%) | > 75% | < 0.1 µM
8 | O=C(OC(C(F)(F)F)C(F)(F)F)N1CCC2(CCCN2Cc2cc(Cl)cc(N3CCOCC3)c2)CC1 [Example 33, 1,1,1,3,3,3-Hexafluoropropan-2-yl 1-(3-chloro-5-morpholinobenzyl)-1,8-diazaspiro[4.5]decane-8-carboxylate] | # (# is <25%) | ### (### is ≥75%) | < 25% | > 1 µM | < 25% | > 1 µM | ## (## is equal to or greater than 25% but less than 75%) | > 75% | < 0.1 µM
9 | O=C(OC(C(F)(F)F)C(F)(F)F)N1CCC2(CCCN2Cc2cccc(N3CCOCC3)c2Cl)CC1 [Example 79, 1,1,1,3,3,3-Hexafluoropropan-2-yl 1-(2-chloro-3-morpholinobenzyl)-1,8-diazaspiro[4.5]decane-8-carboxylate] | # (# is <25%) | ### (### is ≥75%) | < 25% | > 1 µM | < 25% | > 1 µM | # (# is <25%) | > 75% | < 0.1 µM
10 | O=C(OC(C(F)(F)F)C(F)(F)F)N1CCC2(CCCN2Cc2cc(N3CCS(=O)(=O)CC3)cc(C(F)(F)F)c2)CC1 [Example 42, 1,1,1,3,3,3-Hexafluoropropan-2-yl 1-(3-(1,1-dioxidothiomorpholino)-5-(trifluoromethyl)benzyl)-1,8-diazaspiro[4.5]decane-8-carboxylate] | # (# is <25%) | ### (### is ≥75%) | < 25% | > 1 µM | < 25% | > 1 µM | # (# is <25%) | > 75% | < 0.1 µM
11 | O=C(OC(C(F)(F)F)C(F)(F)F)N1CCC2(CCCN2Cc2cc(Oc3cccnc3)cc(C(F)(F)F)c2)CC1 [Example 174, 1,1,1,3,3,3-Hexafluoropropan-2-yl 1-(3-(pyridin-3-yloxy)-5-(trifluoromethyl)benzyl)-1,8-diazaspiro[4.5]decane-8-carboxylate] | # (# is <25%) | ## (## is equal to or greater than 25% but less than 75%) | < 25% | > 1 µM | 25 to 75% | > 1 µM | # (# is <25%) | > 75% | < 0.1 µM
12 | CCOc1cccc(CN2CCCC23CCN(C(=O)OC(C(F)(F)F)C(F)(F)F)CC3)c1 [Example 5, 1,1,1,3,3,3-Hexafluoropropan-2-yl 1-(3-ethoxybenzyl)-1,8-diazaspiro[4.5]decane-8-carboxylate] | ## (## is equal to or greater than 25% but less than 75%) | ### (### is ≥75%) | < 25% | > 1 µM | < 25% | > 1 µM | # (# is <25%) | > 75% | < 0.1 µM
13 | O=C(COc1cc(CN2CCCC23CCN(C(=O)OC(C(F)(F)F)C(F)(F)F)CC3)cc(C(F)(F)F)c1)N1CCCC1 [Example 168, 1,1,1,3,3,3-Hexafluoropropan-2-yl 1-(3-(2-oxo-2-(pyrrolidin-1-yl)ethoxy)-5-(trifluoromethyl)benzyl)-1,8-diazaspiro[4.5]decane-8-carboxylate] | # (# is <25%) | ## (## is equal to or greater than 25% but less than 75%) | < 25% | > 1 µM | < 25% | > 1 µM | # (# is <25%) | > 75% | < 0.1 µM
14 | CC(=O)N1CCN(c2cc(C(F)(F)F)ccc2CN2CCCC23CCN(C(=O)OC(C(F)(F)F)C(F)(F)F)CC3)CC1 [Example 88, 1,1,1,3,3,3-Hexafluoropropan-2-yl 1-(2-(4-acetylpiperazin-1-yl)-4-(trifluoromethyl)benzyl)-1,8-diazaspiro[4.5]decane-8-carboxylate] | # (# is <25%) | ## (## is equal to or greater than 25% but less than 75%) | < 25% | > 1 µM | < 25% | > 1 µM | # (# is <25%) | > 75% | < 0.1 µM
